Measured values as given in patent publication US5516936A, “Inhibitors of kynureninase” (University of Georgia Research Foundation, Inc., priority 1993, dated 1996).
“Also recorded” adds a separate entry of the source. Like-named read-outs stand apart in the source and are kept apart here.

What was measured:
rat liver kynureninase [1] = molecular target: T1, rat liver kynureninase (Rattus norvegicus, UniProt P70712); conditions: cited from earlier work
T1 construct: host or cells: rat liver
T1 sequence (P70712 1-464): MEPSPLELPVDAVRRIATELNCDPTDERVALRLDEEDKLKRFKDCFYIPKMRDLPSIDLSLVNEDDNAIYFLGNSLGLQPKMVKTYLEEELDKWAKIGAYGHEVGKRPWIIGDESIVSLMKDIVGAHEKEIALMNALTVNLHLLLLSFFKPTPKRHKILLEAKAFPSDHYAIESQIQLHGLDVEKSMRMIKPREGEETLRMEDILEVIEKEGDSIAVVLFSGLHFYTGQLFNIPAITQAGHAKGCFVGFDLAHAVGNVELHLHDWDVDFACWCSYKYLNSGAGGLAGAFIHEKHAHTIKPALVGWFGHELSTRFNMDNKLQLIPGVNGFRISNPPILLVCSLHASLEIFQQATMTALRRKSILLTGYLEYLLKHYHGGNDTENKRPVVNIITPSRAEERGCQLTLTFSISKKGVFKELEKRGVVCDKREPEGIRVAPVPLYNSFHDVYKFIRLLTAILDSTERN

kynureninase [2] = conditions: cited from earlier work
cystsine lyase = conditions: cited from earlier work
Kynureninase [3] = molecular target: T2, Kynureninase (Pseudomonas fluorescens, UniProt P83788); experiment: Competitive inhibition of kynureninase by S-aryl cysteines and S-aryl cysteine sulfones; assay type: biochemical; conditions: Table 1; competitive inhibition vs L-kynurenine, pH 7.8, 25° C.; footnote 1: 0.07 is an upper limit; read-out: Ki
T2 construct: Bacterial kynureninase was prepared from cells of Pseudomonas fluorescens; endogenous in cells; partially purified by DEAE-cellulose and ammonium sulfate
T2 sequence (P83788 1-416): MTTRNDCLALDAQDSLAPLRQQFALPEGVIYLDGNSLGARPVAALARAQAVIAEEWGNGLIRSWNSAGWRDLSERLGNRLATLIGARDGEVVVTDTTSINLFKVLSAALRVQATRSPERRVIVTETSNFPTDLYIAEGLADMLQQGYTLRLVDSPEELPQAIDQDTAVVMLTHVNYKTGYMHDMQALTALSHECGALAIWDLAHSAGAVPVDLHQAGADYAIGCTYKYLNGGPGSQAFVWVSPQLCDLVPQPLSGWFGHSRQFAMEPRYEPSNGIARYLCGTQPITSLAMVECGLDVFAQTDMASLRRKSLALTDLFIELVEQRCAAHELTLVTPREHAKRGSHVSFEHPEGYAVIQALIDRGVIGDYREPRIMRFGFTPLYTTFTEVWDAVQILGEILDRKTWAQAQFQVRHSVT
Description: (§1) Bacterial kynureninase was prepared from cells of Pseudomonas fluorescens (ATCC 11250, for example) essentially as described by .Hayaishi and Stanier (1952) J. Biol. Chem. 195:735-740. Cells were grown on a minimal medium containing 0.1% L-tryptophan as the sole carbon and nitrogen source.
(§2) From 100 1 of medium, grown for 18 h at 30° C. 230 g of wet cell paste was obtained. The cells were suspended in 1 of 0.01M potassiumphosphate, pH 7.0, and disrupted by 2 passages through a Manton-Gaulin homogenizer. After centrifugation of the cell extract for 1 h at 10000 g, the enzyme was partially purified by ion-exchange chromatography on DEAE-cellulose and ammonium sulfate precipitation.
Kynureninase activity was measured at 25° C. by following the decrease in absorbance at 360 nm (ε=-4500M^-1 cm^-1). A typical assay mixture contained 0.4 mM L-kynurenine in 0.04M potassium phosphate, pH 7.8, containing 40 μM pyridoxal-5'-phosphate, at 25° C. The reactions of S-aryl cysteines and S-aryl cysteine sulfones with kynureninase were performed using a spectrophotometric coupled assay with lactate dehydrogenase and NADH, by monitoring a decrease in absorbance due to pyruvate formation. A typical assay mixture contained 30 μl lactate dehydrogenase solution (2 mg/ml), 0.1 mM NADH, 40 μM pyridoxal-5'-phosphate, 0.04M tris.HCl buffer, pH 7.8, with varying concentrations of the compounds. The competitive inhibition of these compounds was measured by variation of L-kynurenine concentrations at several fixed values of the inhibitor. Km and Vmax values were calculated by fitting of initial rate data to the Michaelis-Menten equation with ENZFITTER (Elsevier) on a Z-286 personal computer. KI values were determined from the equation:
v=Vmax[S]/ (Km (1+[I]/Ki)+[S]

bacterial kynureninase [4] = conditions: Kishore (1984), cited from earlier work
rat renal C-S lyase = conditions: kidney slice methodology; cited from earlier work
bacterial kynureninase [5] = conditions: Tanizawa and Soda (1979); cited from earlier work
kynureninase [6] = conditions: Takeuchi et al. (1980); cited from earlier work
[7] = system: cystsine conjugate β-lyase; conditions: cited from earlier work
Kynureninase [8] = molecular target: T2, Kynureninase; experiment: Inhibition of bacterial kynureninase by dihydrokynurenine; assay type: biochemical; conditions: for inhibition of reaction with L-kynurenine (in words): bacterial kynureninase; for Ki value (comparison in words): compared between dihydrokynurenine diastereomers
Description: As an extension of these mechanistic studies, the reactivities of dihydrokynurenine diastereomers were examined. […] This increased affinity of (αS,γS)-dihydrokynurenine is characteristic of mechanism-based, or "transition-state analogue" inhibitors.
as §1, §2
Inhibition of kynureninase by dihydrokynurenine was measured by including the potential inhibitor in the enzyme assay mixture (see Example 1 and Tanzawa and Soda (1979) supra) and determining the apparent Km for L-kynurenine (the preferred substrate of bacterial kynurenine) in the absence and presence of the potential inhibitor. Ki values were then calculated using the standard equation: […]
Inhibition of kynureninase by the (αS,γR)- and (αS,γS)-diastereomers of dihydrokynurenine was examined and Ki 's were determined. […] The Ki value for the […] was lower than for the (αS,γR)-diastereomer.

Kynureninase [9] = molecular target: T2, Kynureninase; experiment: Reactivity of dihydrokynurenine and L-kynurenine with bacterial kynureninase; assay type: biochemical; conditions: pH 8.0, 25°; for reactivity with kynureninase (in words): o-aminobenzaldehyde formation at 360 nm
Description: as §1
as §2, with “230 g of wet cell paste was obtained.” left out
The reactivity of the two dihydrokynurenines with kynureninase in 0.1M potassium phosphate buffer, pH 8.0, at 25° was examined. Reaction was followed by the appearance of o-aminobenzaldehyde, as determined spectrophotometrically by the increase in absorbance at 360 nm (See Tanizawa and Soda (1979) Biochem. (Tokyo) 86:1199-1209, which is incorporated by reference herein).

rat liver kynureninase [10] = molecular target: T1, rat liver kynureninase; experiment: Inhibition of rat liver kynureninase (cysteine conjugate β-lyase activity with S-(2-benzothiazolyl)cysteine); assay type: biochemical; conditions: S-(2-benzothiazolyl)cysteine as substrate
Description: Inhibition of mammalian kynureninase can be measured using several different assays for enzyme activity. Rat liver kynureninase is obtained from homogenization of rat liver, followed by precipitation with (NH4)2 SO4, as described by Stevens, J. L., J. Biol. Chem. (1985) 260:7945-7950, which is incorporated by reference herein. The activity of rat liver kynureninase was assessed by measurement of the cysteine conjugate β-lyase activity, as described by Stevens (supra), with S-(2-benzothiazolyl)cysteine, a nonphysiological chromophoric substrate. Inhibition of kynureninase by the dihydrokynurenine diastereomers was assessed with respect to reaction with that substrate.

[11] = substrate: Nc1ccccc1C(=O)C[C@H](N)C(=O)O; experiment: Reactivity of dihydrokynurenine and L-kynurenine with bacterial kynureninase; assay type: biochemical, Pseudomonas fluorescens; conditions: other: L-kynurenine, present work, 30.0 °C

N[C@@H](CSc1nc2ccccc2s1)C(=O)O [S-2-(benzothiazolyl)-L-cysteine]
cleavage by rat liver kynureninase (in words) (rat liver kynureninase [1]): cleavage of S-2-(benzothiazolyl)-L-cysteine to give 2-mercaptobenzothiazole, pyruvate and ammonia

NC(C(=O)O)C(F)(F)C(=O)c1ccccc1 (stereo not drawn) [2,2-difluoro-α-benzoyl alanine, α-amino-β,β-difluoro-γ-oxobenzene butanoic acid]
inhibition of kynureninase (in words) (kynureninase [2]): competitive inhibitor of kynureninase

NO [H2 NOH]
inhibition of cystsine lyase (in words) (cystsine lyase): significantly inhibited

N[C@@H](CSc1ccccc1[N+](=O)[O-])C(=O)O [S-(2-nitrophenyl)-L-cysteine]
Ki (Kynureninase [3]): 100 µM
Ki (bacterial kynureninase [4]): 100 µM
inactivation of kynureninase (in words) (bacterial kynureninase [4]): inactivates kynureninase; also recorded: most efficient suicide substrate at low concentrations; also recorded: suicide inhibitor of kynureninase
reaction with kynureninase (in words) (bacterial kynureninase [4]): react with kynureninase to give pyruvate and ammonia
inactivation of kynureninase (in words) (bacterial kynureninase [4]; listed as S-(2-nitrophenyl)-L-cystsine): inactivated kynureninase
inhibition of C-S lyase (in words) (rat renal C-S lyase): inhibit

Nc1ccccc1C(=O)O [anthranilic acid]
inhibition of bacterial kynureninase (in words) (bacterial kynureninase [5]): inhibitors
inhibition of kynureninase (in words) (kynureninase [6]): inhibit the enzyme

CC(=O)N[C@@H](CSc1c([N+](=O)[O-])cccc1[N+](=O)[O-])C(=O)O [N-acetyl-S-(2,6-dinitrophenyl)-L-cysteine]
inhibition of C-S lyase (in words) (rat renal C-S lyase): inhibit

N[C@@H](CSc1ccc([N+](=O)[O-])cc1)C(=O)O [S-(4-nitrophenyl)-L-cysteine]
inhibition of C-S lyase (in words) (rat renal C-S lyase): inhibit

Nc1c(O)cccc1C(=O)O [3-hydroxyanthranilate, 3-hydroxyanthranilic acid]
inhibition of kynureninase (in words) (kynureninase [6]): inhibit the enzyme

N[C@@H](CSCc1ccccc1)C(=O)O [S-benzyl-L-cysteine]
β-lyase-mediated metabolism (in words) [7]: cleaved to give pyruvate

Nc1ccccc1[C@@H](O)C[C@H](N)C(=O)O [(αS,γS)-dihydrokynurenine, (αS,γS)-α,2-diamino-γ-hydroxybenzenebutanoic acid]
binding relative to L-kynurenine (in words) (Kynureninase [8]): binds about more tightly than does L-kynurenine
inhibition of reaction with L-kynurenine (in words) (Kynureninase [8]): competitive inhibitor of the enzyme
inhibition of reaction with L-kynurenine (in words) (Kynureninase [8]; listed as (αS,γS)-diastereomer): strongly inhibited; also recorded: competitive inhibitors
Ki value (comparison in words) (Kynureninase [8]): lower
reactivity with kynureninase (in words) (Kynureninase [9]): not a substrate for the kynureninase
reactivity with kynureninase (in words) (Kynureninase [9]; listed as (αS,γS) diastereomer): unreactive
reactivity with kynureninase (in words) (Kynureninase [9]; listed as (αS,γS)-diastereomer): No significant reaction
inhibition of rat liver kynureninase (in words) (rat liver kynureninase [10]; listed as (αS,γS) diastereomer): stronger competitive inhibitor
inhibition of rat liver kynureninase (in words) (rat liver kynureninase [10]; listed as (αS,δS)): inhibit the reaction of rat liver kynureninase
Ki (rat liver kynureninase [10]; rat liver kynureninase): ~690 µM

Nc1ccccc1[C@H](O)C[C@H](N)C(=O)O [(αS,γR)-dihydrokynurenine, (αS;γR)-α,2-diamino-γ-hydroxybenzenebutanoic acid]
inhibition of reaction with L-kynurenine (in words) (Kynureninase [8]; listed as (αS,γR)-diastereomer): strongly inhibited; also recorded: competitive inhibitors
Ki value (comparison in words) (Kynureninase [8]): lower
Ki (Kynureninase [8]; competitive with respect to L-kynurenine): 5 µM
rate of reaction relative to L-kynurenine (Kynureninase [9]; 0.1M potassium phosphate buffer): about 5%
reactivity with kynureninase (in words) (Kynureninase [9]): reacted slowly with kynureninase
reactivity with kynureninase (in words) (Kynureninase [9]; listed as (αS,γR)-Dihydrokynurenine): slow substrate
inhibition of rat liver kynureninase (in words) (rat liver kynureninase [10]): inhibit the reaction of rat liver kynureninase

NOCC(=O)O [aminooxyacetic acid]
inhibition of β-lyase (in words) [7]: inhibitor of the β-lyase
inhibition of cystsine lyase (in words) (cystsine lyase): most inhibitory derivative tested

B1: Kynureninase (Pseudomonas fluorescens) (protein)
chain: T2 sequence (P83788 1-416)
notes: Bacterial kynureninase was prepared from cells of Pseudomonas fluorescens; endogenous in cells; partially purified by DEAE-cellulose and ammonium sulfate
Km [11]: 25 µM
